{
  "source": "PubChem BioAssay (NCI)",
  "test_in_all_cases": "inhibition of tumour cell growth, NCI panel, 48 h",
  "key": {"EKVX NSCLC": {"system": "EKVX NSCLC"}, "MOLT-4 leukemia": {"system": "MOLT-4 leukemia"}, "SF-539 CNS": {"system": "SF-539 CNS"}, "NCI/ADR-RES ovarian": {"system": "NCI/ADR-RES ovarian"}, "HL-60(TB) leukemia": {"system": "HL-60(TB) leukemia"}, "HCC-2998 colon": {"system": "HCC-2998 colon"}, "SK-MEL-2 melanoma": {"system": "SK-MEL-2 melanoma"}, "OVCAR-8 ovarian": {"system": "OVCAR-8 ovarian"}, "SF-268 CNS": {"system": "SF-268 CNS"}, "OVCAR-3 ovarian": {"system": "OVCAR-3 ovarian"}, "CCRF-CEM leukemia": {"system": "CCRF-CEM leukemia"}, "SN12C renal": {"system": "SN12C renal"}, "HT29 colon": {"system": "HT29 colon"}, "MDA-MB-231 breast": {"system": "MDA-MB-231 breast"}, "PC-3 prostate": {"system": "PC-3 prostate"}, "ACHN renal": {"system": "ACHN renal"}, "SR leukemia": {"system": "SR leukemia"}, "MALME-3M melanoma": {"system": "MALME-3M melanoma"}, "SW-620 colon": {"system": "SW-620 colon"}, "HCT-15 colon": {"system": "HCT-15 colon"}, "T-47D breast": {"system": "T-47D breast"}, "UACC-62 melanoma": {"system": "UACC-62 melanoma"}, "MCF7 breast": {"system": "MCF7 breast"}, "NCI-H522 lung": {"system": "NCI-H522 lung"}, "OVCAR-4 ovarian": {"system": "OVCAR-4 ovarian"}, "CAKI-1 renal": {"system": "CAKI-1 renal"}, "SK-MEL-28 melanoma": {"system": "SK-MEL-28 melanoma"}, "NCI-H226 lung": {"system": "NCI-H226 lung"}, "BT-549 breast": {"system": "BT-549 breast"}, "HOP-92 NSCLC": {"system": "HOP-92 NSCLC"}, "A549 NSCLC": {"system": "A549 NSCLC"}, "UO-31 renal": {"system": "UO-31 renal"}, "SNB-75 CNS": {"system": "SNB-75 CNS"}, "IGROV1 ovarian": {"system": "IGROV1 ovarian"}, "SF-295 CNS": {"system": "SF-295 CNS"}, "M14 melanoma": {"system": "M14 melanoma"}, "RPMI-8226 leukemia": {"system": "RPMI-8226 leukemia"}, "COLO 205 colon": {"system": "COLO 205 colon"}, "HS 578T breast": {"system": "HS 578T breast"}, "U251 CNS": {"system": "U251 CNS"}, "NCI-H23 lung": {"system": "NCI-H23 lung"}, "KM12 colon": {"system": "KM12 colon"}, "NCI-H460 lung": {"system": "NCI-H460 lung"}, "SK-OV-3 ovarian": {"system": "SK-OV-3 ovarian"}, "UACC-257 melanoma": {"system": "UACC-257 melanoma"}, "DU-145 prostate": {"system": "DU-145 prostate"}, "786-0 renal": {"system": "786-0 renal"}, "RXF 393 renal": {"system": "RXF 393 renal"}, "OVCAR-5 ovarian": {"system": "OVCAR-5 ovarian"}, "MDA-MB-435": {"system": "MDA-MB-435"}, "K-562 leukemia": {"system": "K-562 leukemia"}, "TK-10 renal": {"system": "TK-10 renal"}, "SK-MEL-5 melanoma": {"system": "SK-MEL-5 melanoma"}, "A498 renal": {"system": "A498 renal"}, "MDA-N": {"system": "MDA-N"}, "LOX IMVI melanoma": {"system": "LOX IMVI melanoma"}, "SNB-19 CNS": {"system": "SNB-19 CNS"}, "HCT-116 colon": {"system": "HCT-116 colon"}, "HOP-62 NSCLC": {"system": "HOP-62 NSCLC"}},
  "note": "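Cells were grown in 96-well plates and exposed to each compound for 48 hours at five concentrations; endpoints were interpolated linearly between bracketing concentrations, or set to the highest concentration if not reached. Definition used: TGI = concentration required for complete inhibition of growth.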",
  "data": [
    {"smiles": "Cc1noc(NS(=O)(=O)c2ccc(NC(=O)c3ccc4nc5ccccc5c(Nc5ccc(S(=O)(=O)Nc6onc(C)c6C)cc5)c4c3)cc2)c1C", "values": [
      {"measurement": "TGI", "setting": "EKVX NSCLC", "value": "> 100", "unit": "µM"},
      {"measurement": "TGI", "setting": "MOLT-4 leukemia", "value": "> 100", "unit": "µM"},
      {"measurement": "TGI", "setting": "SF-539 CNS", "value": "> 100", "unit": "µM"},
      {"measurement": "TGI", "setting": "NCI/ADR-RES ovarian", "value": "> 100", "unit": "µM"},
      {"measurement": "TGI", "setting": "HL-60(TB) leukemia", "value": "> 100", "unit": "µM"},
      {"measurement": "TGI", "setting": "HCC-2998 colon", "value": "> 100", "unit": "µM"},
      {"measurement": "TGI", "setting": "SK-MEL-2 melanoma", "value": "> 100", "unit": "µM"},
      {"measurement": "TGI", "setting": "OVCAR-8 ovarian", "value": "> 100", "unit": "µM"},
      {"measurement": "TGI", "setting": "SF-268 CNS", "value": "> 100", "unit": "µM"},
      {"measurement": "TGI", "setting": "OVCAR-3 ovarian", "value": "> 100", "unit": "µM"},
      {"measurement": "TGI", "setting": "CCRF-CEM leukemia", "value": "> 100", "unit": "µM"},
      {"measurement": "TGI", "setting": "SN12C renal", "value": "> 100", "unit": "µM"},
      {"measurement": "TGI", "setting": "HT29 colon", "value": "> 100", "unit": "µM"},
      {"measurement": "TGI", "setting": "MDA-MB-231 breast", "value": 80.8, "unit": "µM"},
      {"measurement": "TGI", "setting": "PC-3 prostate", "value": "> 100", "unit": "µM"},
      {"measurement": "TGI", "setting": "ACHN renal", "value": "> 100", "unit": "µM"},
      {"measurement": "TGI", "setting": "SR leukemia", "value": "> 100", "unit": "µM"},
      {"measurement": "TGI", "setting": "MALME-3M melanoma", "value": "> 100", "unit": "µM"},
      {"measurement": "TGI", "setting": "SW-620 colon", "value": "> 100", "unit": "µM"},
      {"measurement": "TGI", "setting": "HCT-15 colon", "value": "> 100", "unit": "µM"},
      {"measurement": "TGI", "setting": "T-47D breast", "value": "> 100", "unit": "µM"},
      {"measurement": "TGI", "setting": "UACC-62 melanoma", "value": "> 100", "unit": "µM"},
      {"measurement": "TGI", "setting": "MCF7 breast", "value": "> 100", "unit": "µM"},
      {"measurement": "TGI", "setting": "NCI-H522 lung", "value": "> 100", "unit": "µM"},
      {"measurement": "TGI", "setting": "OVCAR-4 ovarian", "value": "> 100", "unit": "µM"},
      {"measurement": "TGI", "setting": "CAKI-1 renal", "value": "> 100", "unit": "µM"},
      {"measurement": "TGI", "setting": "SK-MEL-28 melanoma", "value": "> 100", "unit": "µM"},
      {"measurement": "TGI", "setting": "NCI-H226 lung", "value": "> 100", "unit": "µM"},
      {"measurement": "TGI", "setting": "BT-549 breast", "value": 88.8, "unit": "µM"},
      {"measurement": "TGI", "setting": "HOP-92 NSCLC", "value": "> 100", "unit": "µM"},
      {"measurement": "TGI", "setting": "A549 NSCLC", "value": "> 100", "unit": "µM"},
      {"measurement": "TGI", "setting": "UO-31 renal", "value": "> 100", "unit": "µM"},
      {"measurement": "TGI", "setting": "SNB-75 CNS", "value": "> 100", "unit": "µM"},
      {"measurement": "TGI", "setting": "IGROV1 ovarian", "value": "> 100", "unit": "µM"},
      {"measurement": "TGI", "setting": "SF-295 CNS", "value": "> 100", "unit": "µM"},
      {"measurement": "TGI", "setting": "M14 melanoma", "value": "> 100", "unit": "µM"},
      {"measurement": "TGI", "setting": "RPMI-8226 leukemia", "value": "> 100", "unit": "µM"},
      {"measurement": "TGI", "setting": "COLO 205 colon", "value": "> 100", "unit": "µM"},
      {"measurement": "TGI", "setting": "HS 578T breast", "value": "> 100", "unit": "µM"},
      {"measurement": "TGI", "setting": "U251 CNS", "value": "> 100", "unit": "µM"},
      {"measurement": "TGI", "setting": "NCI-H23 lung", "value": "> 100", "unit": "µM"},
      {"measurement": "TGI", "setting": "KM12 colon", "value": "> 100", "unit": "µM"},
      {"measurement": "TGI", "setting": "NCI-H460 lung", "value": "> 100", "unit": "µM"},
      {"measurement": "TGI", "setting": "SK-OV-3 ovarian", "value": "> 100", "unit": "µM"},
      {"measurement": "TGI", "setting": "UACC-257 melanoma", "value": "> 100", "unit": "µM"},
      {"measurement": "TGI", "setting": "DU-145 prostate", "value": "> 100", "unit": "µM"},
      {"measurement": "TGI", "setting": "786-0 renal", "value": "> 100", "unit": "µM"},
      {"measurement": "TGI", "setting": "RXF 393 renal", "value": "> 100", "unit": "µM"},
      {"measurement": "TGI", "setting": "OVCAR-5 ovarian", "value": "> 100", "unit": "µM"},
      {"measurement": "TGI", "setting": "MDA-MB-435", "value": "> 100", "unit": "µM"},
      {"measurement": "TGI", "setting": "K-562 leukemia", "value": 60.7, "unit": "µM"},
      {"measurement": "TGI", "setting": "TK-10 renal", "value": "> 100", "unit": "µM"},
      {"measurement": "TGI", "setting": "SK-MEL-5 melanoma", "value": "> 100", "unit": "µM"},
      {"measurement": "TGI", "setting": "A498 renal", "value": "> 100", "unit": "µM"},
      {"measurement": "TGI", "setting": "MDA-N", "value": "> 100", "unit": "µM"},
      {"measurement": "TGI", "setting": "LOX IMVI melanoma", "value": 61.3, "unit": "µM"},
      {"measurement": "TGI", "setting": "SNB-19 CNS", "value": "> 100", "unit": "µM"},
      {"measurement": "TGI", "setting": "HCT-116 colon", "value": "> 100", "unit": "µM"},
      {"measurement": "TGI", "setting": "HOP-62 NSCLC", "value": "> 100", "unit": "µM"}
    ]}
  ]
}
